This experiment relates to CaCo-2 cells. Put plainly: Effects of kinase inhibitors on N-(3-oxododecanoyl)-L-homoserine lactone-dependent apoptosis, viability by Trypan blue staining. It is filed as cell-based, human. To be noted: then 30 μM N-(3-oxododecanoyl)-L-homoserine lactone, 12 hours. The procedure: 2×10^5 CaCo-2 cells were inoculated per 3.5 cm dish, cultured for 12 hours in the presence of 10% serum, washed twice with PBS (-), and then synchronously cultured in a serum-free medium for 24 hours. Pretreatment with various inhibitors (50 μM PD98059 and 20 μM SB203580) or DMSO was carried out for 30 minutes. Then 30 μM N-(3-oxododecanoyl)-L-homoserine lactone or DMSO was added, the cells were cultured for 12 hours, and then viability was measured by Trypan blue staining.

Each structure is given as a SMILES string.

As to `COc1cccc(-c2cc(=O)c3ccccc3o2)c1N` [PD98059], the “effect of pretreatment on viability” value (50 μM pretreatment 30 minutes) is on record as “no effect”.

Consider `C[S+]([O-])c1ccc(-c2nc(-c3ccncc3)c(-c3ccc(F)cc3)[nH]2)cc1` (centres unmarked) [SB203580], for which the viability at 20 µM (Homo sapiens, 20 μM pretreatment 30 minutes) was 35%.

The values are drawn from US7537906B2, “Apoptosis inducer and method of screening for a substance inhibiting acylated homoserine lactone” (priority 2003, dated 2009).
